This passage reports TGI results from PubChem BioAssay (NCI).

What all share (assay): growth of human tumour cells (NCI), 48 h
For assay [1], the system named is MDA-N.
Assay [2] relates to DMS 114 small cell lung.
Assay [3] has as its system DLD-1 colon.
Assay [4] concerns XF 498 CNS.
Assay [5] concerns KM20L2 colon.
Assay [6] concerns DMS 273 small cell lung.
In assay [7] the test system is M19-MEL melanoma.
Assay [8] concerns RXF-631 renal.
The subject of assay [9] is SN12K1 renal.

Molecules are shown by their SMILES. “And” between values parts separate entries of the source, which are not always exact repeats. Equal values may be shown once.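 Values below derive from 48-hour exposures of cells grown in 96-well plates, with endpoints linearly interpolated between the two concentrations bracketing the appropriate inhibition level. The concentration for full growth arrest is given as TGI.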 Where a SMILES comes first, the peptide text is derived from it. [ ]: non-standard residue; d: D form. The star is where a group is joined. ξ: configuration not given here. X3 = COc1ccc(C(N*)c2ccc(OC)cc2)cc1; NMeF = CN[C@@H](Cc1ccccc1)C(=O)O; NMeD = CN[C@@H](CC(=O)O)C(=O)O; NMeV = CN[C@H](C(=O)O)C(C)C; ξNMeV = CNC(C(=O)O)C(C)C; Boc = CC(C)(C)OC(=O)*; ξNMeA = CNC(C)C(=O)O; ξV = CC(C)C(N)C(=O)O

As to `COc1ccc(C(NC(=O)C[C@@H](C(=O)N(C)C(C)C(=O)O)N(C)C(=O)[C@@H]2CCCN2C(=O)[C@H](C(C)C)N(C)C(=O)C(C(C)C)N(C)C(=O)[C@H](Cc2ccccc2)N(C)C(=O)C(NC(=O)OC(C)(C)C)C(C)C)c2ccc(OC)cc2)cc1` (stereo partly specified) (Boc-[ξV][NMeF][ξNMeV][NMeV]P[NMeD](X3)[ξNMeA]-OH), the TGI in [1] turned out to be 32.7 µM; in [2] it was 33.4 µM; in assay [3], 32.1 µM; in assay [4] it was 29.5 µM; in assay [5], 37.6 µM; in assay [6], 30.9 µM. In [7], this molecule registered a TGI of 34.4 µM.
`O=CNc1ccc2c(c1)C(=O)c1ccccc1-2`: the TGI in assay [1] is greater than 100 µM.
The same measure, in the same setting: to `CC1=C2C(=C[C@@](C)(CO)[C@@H]2O)C(=O)[C@](C)(O)C12CC2` belongs 0.0272 µM and 0.0105 µM.
Turning to `COC(=O)CC(c1ccccc1)C1(c2ccccc2)SCCS1` (stereo unspecified), the TGI in assay [2], in [3], in assay [4], in assay [5], in assay [6] and in assay [8] was greater than 290 µM each time. In assay [7], this molecule gave a TGI greater than 290 µM.
With `O=C1C=CC(=O)c2nc3c(cc21)CCC3`, the TGI in assay [2] is 42.5 µM; in [3], 36 µM; in assay [4], 32.9 µM; in assay [6], 47.4 µM; in assay [8] it was greater than 100 µM; in assay [7] it was 31.2 µM.
On to `COc1ccc(C)cc1-c1cc(Sc2ccccc2)c(-c2cc(C)ccc2OC)o1`, for which the TGI was greater than 31.6 µM in assay [2]; greater than 31.6 µM in [3]; greater than 100 µM in assay [4]; greater than 31.6 µM in [5]; greater than 31.6 µM in assay [6]; greater than 31.6 µM in assay [8]. Further, the TGI in assay [7] is greater than 31.6 µM.
In assay [1], `CC(=O)CC(OC(C)=O)C1=CCC2C(CC1C)OC(=O)C2C` (stereo unspecified) registered a TGI greater than 100 µM.
Regarding `O=S(=O)(N/N=C/c1cccc(/C=N/NS(=O)(=O)c2ccccc2)c1)c1ccccc1`, the TGI in [2], in assay [3], in [5], in assay [6], in [8] and in assay [7] was greater than 100 µM throughout.
As to `Oc1[nH]c2ccccc2c1N=Nc1nc(-c2ccc(Br)cc2)cs1`, in assay [1], the TGI is greater than 100 µM.
In the case of `CC(=O)NNc1nc(C)c(C(=O)/C=C/c2ccc(NC(C)=O)cc2)s1`, the TGI in assay [3], in assay [5], in assay [6], in assay [8] and in assay [7] was greater than 100 µM throughout.
Consider `C/C(CCn1[nH]c(=O)ccc1=O)=N\NC(=O)C(=O)NN`, for which the TGI in assay [3], in assay [4], in assay [5], in assay [6], in [8] and in assay [7] was greater than 100 µM in each case.
Take `CCCCCC[C@@H]1CCC2C(CO)[C@@H](O)CC[C@@H]2C1` (stereo partly specified): the TGI turned out to be 37.5 µM in [2]; 34.6 µM in assay [3]; 39.8 µM in assay [4]; 33.7 µM in [5]; 39.4 µM in assay [6]; 35.3 µM in assay [7].
Take `O=C(/C=C/c1ccc(O)cc1)c1ccc(O)cc1`: the TGI is greater than 88.4 µM in assay [1]; 43.8 µM in assay [2]; 36.9 µM in assay [3]; 34.1 µM in [4]; 47 µM in [5]; 36.9 µM in assay [6]. This molecule also displayed a TGI in assay [7] of 42.2 µM.
`O=C1CN(c2cccc(Cl)c2)C(=O)CN1CCN1CC(=O)N(c2cccc(Cl)c2)CC1=O` yielded a TGI in [1] greater than 100 µM.
Still for that read-out and setting: next, `O=C(O)c1nc2nc(Cl)c(Cl)nc2[nH]1`: greater than 100 µM; `O=S(=O)(c1ccccc1)N1CCN(S(=O)(=O)c2ccccc2)c2ccccc21`: greater than 100 µM; `CCOC(=S)SCC(=O)O`: greater than 100 µM.
Consider `c1ccc(NCn2cnc3ccccc32)cc1`, for which the TGI in assay [2], in assay [3], in assay [4], in assay [5], in assay [6] and in [8] was greater than 100 µM in each case. Also, the TGI in assay [7] is greater than 100 µM.
In the case of `CC(C)(C)c1cc2c(O)c3cccc4c(=O)c5cccc6c5-c(c34)c2c(c1)c6=O`, the TGI in assay [3] is greater than 100 µM; in assay [4], 88.5 µM; in assay [5], greater than 100 µM; in assay [6], greater than 100 µM; in [7], greater than 100 µM.
For `CN(C)CC1CC/C(=C\c2ccc(O)cc2)C1=O` (stereo unspecified), the TGI in assay [1] worked out at 6.8 µM; in [2], 23.5 µM; in assay [3], 6.27 µM; in [4], 11.3 µM; in [5], 22.1 µM; in [6], 9.68 µM. Also, the TGI stood at 3.4 µM in assay [9] and 7.55 µM in assay [7].
Regarding `NC(=O)c1ccccc1NC(=O)C(=O)C(C(=O)c1ccc(Cl)c(Cl)c1)C1OC(=O)c2ccccc21` (stereo unspecified), the TGI in assay [3], in assay [4], in assay [5] and in [6] was greater than 100 µM in each case.
Turning to `Cc1cccc(C)c1NC(=O)CCCC(=O)C1/C(=N/NC(=O)CC#N)CCC/C1=N\NC(=O)CC#N` (stereo unspecified), the TGI in [2], in assay [3], in assay [4], in [5], in assay [6] and in assay [8] was greater than 100 µM each time. The molecule further yielded a TGI in assay [7] greater than 100 µM.
